US10947241B2, “Phenyl phthalazine derivative, method for the preparation thereof, and pharmaceutical composition comprising the same” (Seoul National University Hospital, priority 2016, dated 2021)
Structures can show the parent of a compound that is named as a salt.

Biological target: hResistin (Homo sapiens (Human), UniProt Q9HD89)
Assay: Evaluation of the ability to inhibit TNF-α secretion by hResistin (THP-1 cells, ELISA)
Type: cell-based
Details: for inhibition at 5 µM: inhibition of TNF-α secretion by hResistin in THP-1 cells; for IC50: THP-1 human monocyte cell line, human recombinant Resistin
Protocol: Experimental Example: Evaluation of the Ability to Inhibit TNF-α Secretion by hResistin
Using THP-1 (human monocyte) cell line and ELISA system, the abilities to inhibit TNF-α secretion by hResistin (IC50) were evaluated for the compounds prepared in the above examples. The compounds target hResistin, and the abilities of the compounds to inhibit TNF-α secretion by human recombinant Resistin in human monocyte (THP-1) were evaluated. The abilities to inhibit TNF-α secretion were assessed by ELISA quantifying the amount of antibody with the enzyme as a marker using an antigen-antibody reaction.
Specifically, the cultured cells were spun down at 1,500 rpm for 2 minutes, the supernatant was removed and then the cells were re-suspended in 10 mL of complete RPMI-1640 medium. After counting the number of cells using Luna™ Automated Cell Counter, cells were plated into 96-well assay plates at 50 μL per well. The cells cultured for 24 hours were treated with the test substances in accordance with the concentration for 1 hour, and then the supernatant was collected and subjected to ELISA assay. In the ELISA assay, the absorbance at 450 nm (OD450 nm) was measured using Flexstation 3. The ability of each test substance to inhibit TNF-α secretion (IC50) and its inhibition at a concentration of 5 uM are shown in Table 1 below.

hResistin, sequence (Q9HD89 19-108): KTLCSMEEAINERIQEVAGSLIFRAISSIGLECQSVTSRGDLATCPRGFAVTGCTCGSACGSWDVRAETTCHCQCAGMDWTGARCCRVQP

## CC(=O)NC1CCN(c2nnc(-c3ccc(Cl)cc3)c3ccccc23)C1 (centres unmarked) [Example 45, N-(1-(4-(4-chlorophenyl)phthalazin-1-yl)pyrrolidin-3-yl)acetamide]
  inhibition at 5 µM: 77.6%
  IC50: 1600 nM

## Clc1ccc(-c2nnc(O[C@H]3CCNC3)c3ccccc23)cc1 [Example 95, (S)-1-(4-chlorophenyl)-4-(pyrrolidin-3-yloxy)phthalazine hydrochloride]
  inhibition at 5 µM: 64%
  IC50: 2300 nM

## Clc1ccc(-c2nnc(N3CCCN(Cc4ccccc4)CC3)c3ccccc23)cc1 [Example 67, 1-(4-benzyl-1,4-diazepan-1-yl)-4-(4-chlorophenyl)phthalazine]
  inhibition at 5 µM: 38.9%

## CC(C)(N)C(=O)N1CCN(c2nnc(-c3ccc(CCC(=O)O)cc3)c3ccccc23)CC1 [Example 104, 3-(4-(4-(4-(2-amino-2-methylpropanoyl)piperazin-1-yl)phthalazin-1-yl)phenyl)propanoic acid hydrochloride]
  inhibition at 5 µM: 0.6%

## C[C@H]1CN(C(=O)C(C)(C)N)CCN1c1nnc(-c2ccc(Cl)cc2)c2ccccc12 [Example 74, (S)-2-amino-1-(4-(4-(4-chlorophenyl)phthalazin-1-yl)-3-methylpiperazin-1-yl)-2-methylpropan-1-one hydrochloride]
  inhibition at 5 µM: 38.7%

## CCOC(=O)CN1CCN(c2nnc(-c3ccc(Cl)cc3)c3ccccc23)CC1 [Example 65, ethyl 2-(4-(4-(4-chlorophenyl)phthalazin-1-yl)piperazin-1-yl)acetate]
  inhibition at 5 µM: 2.4%

## C[C@@H](N)C(=O)N1CCN(c2nnc(-c3ccc(Cl)cc3)c3ccccc23)CC1 [Example 36, (R)-2-amino-1-(4-(4-(4-chlorophenyl)phthalazin-1-yl)piperazin-1-yl)propan-1-one hydrochloride]
  inhibition at 5 µM: 75.8%
  IC50: 2500 nM

## CC(C)(N)C(=O)N1CCN(c2nnc(-c3ccc(C(F)(F)F)cc3)c3ccccc23)CC1 [Example 102, 2-amino-2-methyl-1-(4-(4-(4-(trifluoromethyl)phenyl)phthalazin-1-yl)piperazin-1-yl)propan-1-one hydrochloride]
  inhibition at 5 µM: 37%

## CC(C)(C)C(N)C(=O)N1CCN(c2nnc(-c3ccc(Cl)cc3)c3ccccc23)CC1 (centres unmarked) [Example 77, 2-amino-1-(4-(4-(4-chlorophenyl)phthalazin-1-yl)piperazin-1-yl)-3,3-dimethylbutan-1-one hydrochloride]
  inhibition at 5 µM: 46.7%

## O=C([C@@H]1CCCN1)N1CCC(c2nnc(-c3ccc(Cl)cc3)c3ccccc23)CC1 [Example 62, (S)-(4-(4-(4-chlorophenyl)phthalazin-1-yl)piperidin-1-yl)(pyrrolidin-2-yl)methanone hydrochloride]
  inhibition at 5 µM: 24.8%

## CC(C)[C@H](N)C(=O)N1CCN(c2nnc(-c3ccc(Cl)cc3)c3ccccc23)C[C@H]1C [Example 71, (S)-2-amino-1-((R)-4-(4-(4-chlorophenyl)phthalazin-1-yl)-2-methylpiperazin-1-yl)-3-methylbutan-1-one hydrochloride]
  inhibition at 5 µM: 42.2%

## CNC1CCN(c2nnc(Nc3ccc(Cl)cc3)c3ccccc23)C1 (centres unmarked) [Example 97, N-(4-chlorophenyl)-4-(3-(methylamino)pyrrolidin-1-yl)phthalazin-1-amine]
  inhibition at 5 µM: 26.9%

## Clc1ccc(-c2nnc(N3CCN(CC4CC4)CC3)c3ccccc23)cc1 [Example 50, 1-(4-chlorophenyl)-4-(4-(cyclopropylmethyl)piperazin-1-yl)phthalazine]
  inhibition at 5 µM: 54%

## NC(CCC(=O)O)C(=O)N1CCN(c2nnc(-c3ccc(Cl)cc3)c3ccccc23)CC1 (centres unmarked) [Example 86, 4-amino-5-(4-(4-(4-chlorophenyl)phthalazin-1-yl)piperazin-1-yl)-5-oxopentanoic acid hydrochloride]
  IC50: 18000 nM

## CC(C)(N)C(=O)N1CCN(c2nnc(-c3ccc(Cl)cc3)c3ccccc23)CC1 [Example 43, 2-amino-1-(4-(4-(4-chlorophenyl)phthalazin-1-yl)piperazin-1-yl)-2-methyl propan-1-one hydrochloride]
  inhibition at 5 µM: 84.4%
  IC50: 1300 nM

## CNC1CCN(c2nnc(-c3ccc(Cl)cc3)c3ccc(Cl)cc23)C1 (centres unmarked) [Example 89, 1-(7-chloro-4-(4-chlorophenyl)phthalazin-1-yl)-N-methylpyrrolidin-3-amine hydrochloride]
  inhibition at 5 µM: 77.9%
  IC50: 1800 nM

## N[C@@H](Cc1c[nH]cn1)C(=O)N1CCN(c2nnc(-c3ccc(Cl)cc3)c3ccccc23)CC1 [Example 76, (S)-2-amino-1-(4-(4-(4-chlorophenyl)phthalazin-1-yl)piperazin-1-yl)-3-(1H-imidazol-4-yl)propan-1-one dihydrochloride]
  inhibition at 5 µM: 28.9%

## CC(C)[C@H](N)C(=O)N1CCC(c2nnc(-c3ccc(Cl)cc3)c3ccccc23)CC1 [Example 61, (S)-2-amino-1-(4-(4-(4-chlorophenyl)phthalazin-1-yl)piperidin-1-yl)-3-methylbutan-1-one hydrochloride]
  inhibition at 5 µM: 21.2%

## CC[C@H](C)[C@H](N)C(=O)N1CCN(c2nnc(-c3ccc(Cl)cc3)c3ccccc23)CC1 [Example 60, (2S,3S)-2-amino-1-(4-(4-(4-chlorophenyl)phthalazin-1-yl)piperazin-1-yl)-3-methylpentan-1-one hydrochloride]
  inhibition at 5 µM: 91.2%
  IC50: 1900 nM

## NC1(C(=O)N2CCN(c3nnc(-c4ccc(Cl)cc4)c4ccccc34)CC2)CCCC1 [Example 58, (1-aminocyclopentyl)(4-(4-(4-chlorophenyl)phthalazin-1-yl)piperazin-1-yl)methanone hydrochloride]
  inhibition at 5 µM: 77.3%
  IC50: 2900 nM

## COCCN1CCN(c2nnc(-c3ccc(Cl)cc3)c3ccccc23)CC1 [Example 9, 1-(4-chlorophenyl)-4-(4-(2-methoxyethyl)piperazin-1-yl)phthalazine]
  IC50: 3700 nM

## CC(C)[C@H](N)C(=O)N1CCN(c2nnc(-c3ccc(Cl)cc3)c3ccccc23)CC1(C)C [Example 69, (S)-2-amino-1-(4-(4-(4-chlorophenyl)phthalazin-1-yl)-2,2-dimethylpiperazin-1-yl)-3-methylbutan-1-one hydrochloride]
  inhibition at 5 µM: 16.1%

## CNC1CCN(c2nnc(-c3ccc(Cl)cc3)c3cc(Cl)ccc23)C1 (centres unmarked) [Example 90, 1-(6-chloro-4-(4-chlorophenyl)phthalazin-1-yl)-N-methylpyrrolidin-3-amine hydrochloride]
  inhibition at 5 µM: 86.7%
  IC50: 900 nM

## O=C([C@@H]1CCCN1)N1CCN(c2nnc(-c3ccc(Cl)cc3)c3ccccc23)CC1 [Example 59, (S)-(4-(4-(4-chlorophenyl)phthalazin-1-yl)piperazin-1-yl)(pyrrolidin-2-yl)methanone hydrochloride]
  inhibition at 5 µM: 60.3%

## Clc1ccc(-c2nnc(OC3CCCNC3)c3ccccc23)cc1 (centres unmarked) [Example 96, 1-(4-chlorophenyl)-4-(piperidin-3-yloxy)phthalazine hydrochloride]
  inhibition at 5 µM: 58.9%

## CC(C)(N)C(=O)N1CC=C(c2nnc(-c3ccc(Cl)cc3)c3ccccc23)CC1 [Example 44, 2-amino-1-(4-(4-(4-chlorophenyl)phthalazin-1-yl)-5,6-dihydropyridin-1(2H)-yl)-2-methylpropan-1-one hydrochloride]
  inhibition at 5 µM: 50.5%

## CC(C)(N)C(=O)N1CCC(c2nnc(-c3ccc(Cl)cc3)c3ccccc23)CC1 [Example 64, 2-amino-1-(4-(4-(4-chlorophenyl)phthalazin-1-yl)piperidin-1-yl)-2-methylpropan-1-one hydrochloride]
  inhibition at 5 µM: 23.9%

## O=C(C1CCCCN1)N1CCN(c2nnc(-c3ccc(Cl)cc3)c3ccccc23)CC1 (centres unmarked) [Example 78, (4-(4-(4-chlorophenyl)phthalazin-1-yl)piperazin-1-yl)(piperidin-2-yl)methanone hydrochloride]
  inhibition at 5 µM: 81.3%

## CNC1CCN(c2nnc(Oc3ccc(Cl)cc3)c3ccccc23)C1 (centres unmarked) [Example 93, 1-(4-(4-chlorophenoxy)phthalazin-1-yl)-N-methylpyrrolidin-3-amine hydrochloride]
  inhibition at 5 µM: 67.6%
  IC50: 1900 nM

## CC[C@H](C)[C@H](N)C(=O)N1CCC(c2nnc(-c3ccc(Cl)cc3)c3ccccc23)CC1 [Example 63, (2S,3S)-2-amino-1-(4-(4-(4-chlorophenyl)phthalazin-1-yl)piperidin-1-yl)-3-methylpentan-1-one hydrochloride]
  inhibition at 5 µM: 53.6%

## CC(C)(N)C(=O)N1CCN(c2nnc(Oc3ccc(Cl)cc3)c3ccccc23)CC1 [Example 94, 2-amino-1-(4-(4-(4-chlorophenoxy)phthalazin-1-yl)piperazin-1-yl)-2-methylpropan-1-one hydrochloride]
  inhibition at 5 µM: 29.9%

## CC(C)(C(=O)O)N1CCN(c2nnc(-c3ccc(Cl)cc3)c3ccccc23)CC1 [Example 82, 2-(4-(4-(4-chlorophenyl)phthalazin-1-yl)piperazin-1-yl)-2-methylpropanoic acid]
  inhibition at 5 µM: 50%

## NCCN1CCN(c2nnc(-c3ccc(Cl)cc3)c3ccccc23)CC1 [Example 38, 2-(4-(4-(4-chlorophenyl)phthalazin-1-yl)piperazin-1-yl)ethanamine hydrochloride]
  inhibition at 5 µM: 69.5%
  IC50: 7900 nM

## CNC1CCN(c2nnc(Cc3ccc(Cl)cc3)c3ccccc23)C1 (centres unmarked) [Example 98, 1-(4-(4-chlorobenzyl)phthalazin-1-yl)-N-methylpyrrolidin-3-amine hydrochloride]
  inhibition at 5 µM: 3.9%
